Assay results as given in US20120088667A1, “SAFENING AGENT” (priority 2009, published 2012).

Columns and labels:
PEA cv Ragtime [1] = assay: Root nodulation, rooting and safening, pea, compost of low pH (Examples 7.5 and 7.7)
Text: (§1) The safener/safening system and the fertiliser were applied to the crops either simultaneously or sequentially.
(§2) Co=100% Cobalt Sulphate (20 g per litre and per hectare). FF1=20 g per litre Cobalt Sulphate (as per Co above) plus “Miracle-Gro” at xl recommended rate (applied at 15 g per 2.5 sq metres). Miracle-Gro contains: 24% N, 4% P, 13% K, plus 0.02% B, 0.03% Cu, 0.19% Fe, 0.05% Mn, 0.001% Mo and 0.03% Zn. FF2=20 g per litre Cobalt Sulphate plus Miracle-Gro at ×2 recommended rate. SAF: at least one from class (f) each at <3 g/l, plus at least one from class (c).
PEA—TRIAL 5—cv Ragtime. Scored/Counted+28 Days after Spraying. Sown in Compost of Low pH (5.0-5.5) on 28 Apr. 2008. Spray Date (VC)=26 May, V1 Date=14 June. Scored/Measured on 9 July. […] No inoculum applied.
Sowing details etc as per Example 7.5.

NAVY BEAN cv Mogex [2] = assay: Root nodulation and safening, navy bean, compost of low pH (Example 7.3); settings: compost of low pH (5.0-5.5); for Nodules Per Plant (V1): V1, +28 days after spraying, no inoculum; for Nodulation Score (0-9) (V1) / Phyto-Toxicity Score (0-9) (V1) / Vigour Score (0-9) (V1): V1, score 0-9
Text: as §1, §2
NAVY BEAN cv Mogex. Scored/Counted+28 Days after Spraying. Sown in Compost of low pH (5.0-5.5) on 29 Apr. 2008. Spray Date (VC)=27 May, V1 Date=16 June. Scored/Measured on 11 July. Each treatment represents the mean value of 12 plants, within four replicates. No inoculum applied.

Winter Wheat cv Limerick = assay: Safening of fertilisers, pot trial: phytotoxicity and vigour scores, winter wheat; type: in vivo; settings: for Vigour (0-9) (9 = Most Vigour) + 14 days / Vigour (0-9) + 28 Days: score 0-9
Text: The safening system and the fertilizer were applied either simultaneously or sequentially.
Sprayed: mid-tillering phase (GS23). Winter Wheat: cv Limerick, sown 4 Jun. […] Sprayed: mid-tillering phase (GS23). Lettuce: cv Set, sown 10 Jul. 2008, at one seed per pot, in John Innes No 1 compost. Date of spraying: 30 July; Dates of measurement: 7 August, 14 August, 28 August. Sprayed: 2 true leaf stage.

PEA cv Ragtime [3] = assay: Root nodulation and safening, pea, compost of normal pH (Example 7.6); settings: compost of normal pH (6.5); for Nodules Per Plant (V1): V1, no inoculum; for Nodulation Score (0-9) (V1) / Phyto-Toxicity Score (0-9) (V1) / Vigour Score (0-9) (V1): V1, score 0-9
Text: as §1, §2
PEA—TRIAL 7.6—cv Ragtime. Dates as per Example 7.5 above, but sown in compost of normal pH (6.5). […] No inoculum was applied.

Soybean = assay: Root nodulation and safening, soybean, compost of low pH (Example 7.1); settings: Soybean, compost of low pH (5.0-5.5); for Nodules Per Plant (V1): V1, +28 days after spraying, mean of 12 plants; for Nodulation Score (0-9) (V1) / Phyto-Toxicity Score (0-9) (V1) / Vigour Score (0-9) (V1): V1, score 0-9; for Nodules Per Plant (VC): +28 days after spraying
Text: as §1, §2
Scored/Counted+28 Days After Spraying. Sown in Compost of low pH (5.0-5.5) on 1 May 2008. Spray Date (VC)=4 June, V1 Date=20 June. Scored/Measured on 17 July. […] Seed density approx 110 kg/ha. Soybean treated with standard inoculant at sowing.

NAVY BEAN cv Mogex [4] = assay: Root nodulation and safening, navy bean, compost of normal pH (Example 7.4); settings: compost of normal pH (6.5); for Nodules Per Plant (V1): V1, +28 days after spraying, no inoculum; for Nodulation Score (0-9) (V1) / Phyto-Toxicity Score (0-9) (V1) / Vigour Score (0-9) (V1): V1, score 0-9
Text: as §1, §2
NAVY BEAN cv Mogex. Scored/Counted+28 Days after Spraying. Dates as per Example 7.3 Above, but sown in compost of normal pH (6.5). Each treatment represents the mean value from 12 plants, within four replicates. No inoculum applied.

[5] = compost of low pH (5.0-5.5), V1, +28 days after spraying, no inoculum
[6] = compost of low pH (5.0-5.5), V1, score 0-9
[7] = low pH compost, application at V1 (data from Example 7.5)
[8] = low pH compost, application at V1, 0-9 scale

## Nc1ccccc1C(=O)O [AN, anthranilic acid]
PEA cv Ragtime [1]; [5]
  Nodules Per Plant (V1): 16.8
PEA cv Ragtime [1]; [6]
  Nodulation Score (0-9) (V1): 5.0
  Phyto-Toxicity Score (0-9) (V1): 5.2
  Vigour Score (0-9) (V1): 5.5
PEA cv Ragtime [1]; compost of low pH (5.0-5.5)
  Nodules Per Plant (VC): 17.3
  Nod Score (0-9) (VC): 5.2
PEA cv Ragtime [1]; [7]
  Nodules Per Plant (V1): 16.8
PEA cv Ragtime [1]; [8]
  Nodulation Score (0-9) (V1): 5.0
  Phyto-Toxicity Score (0-9) (V1): 5.2
  Rooting Score (0-9) (V1): 4.2
NAVY BEAN cv Mogex [2]
  Nodules Per Plant (V1): 20.9
  Nodulation Score (0-9) (V1): 3.3
  Phyto-Toxicity Score (0-9) (V1): 6.0
  Vigour Score (0-9) (V1): 6.0
  Nodules Per Plant (VC): 23.4
  Nod Score (0-9) (VC): 3.8
Winter Wheat cv Limerick; Table 1.4, winter wheat, phosphite fertiliser (KP), score 0-9, 0 = dead, +14 days
  Phytotoxicity (0-9) (0 = Dead) + 14 Days: 7.5
Winter Wheat cv Limerick; Table 1.4, winter wheat, phosphite fertiliser (KP), score 0-9, 0 = dead
  Phytotoxicity (0-9) (0 = Dead) + 28 Days: 8.0
Winter Wheat cv Limerick; Table 1.4, winter wheat, phosphite fertiliser (KP), +14 days
  Vigour (0-9) (9 = Most Vigour) + 14 days: 8.0
Winter Wheat cv Limerick; Table 1.4, winter wheat, phosphite fertiliser (KP)
  Vigour (0-9) + 28 Days: 8.5
Winter Wheat cv Limerick; Table 1.5, winter wheat, KP/ATS, score 0-9, 0 = dead
  Phytotoxicity (0-9) (0 = Dead) + 28 Days: 8.0
Winter Wheat cv Limerick; Table 1.5, winter wheat, KP/ATS, +14 days
  Vigour (0-9) (9 = Most Vigour) + 14 days: 8.0
Winter Wheat cv Limerick; Table 1.5, winter wheat, KP/ATS
  Vigour (0-9) + 28 Days: 8.5
Winter Wheat cv Limerick; Table 1.5, winter wheat, thiosulphate and phosphite fertilisers (KP/ATS), score 0-9, 0 = dead, +14 days
  Phytotoxicity (0-9) (0 = Dead) + 14 Days: 7.5
Winter Wheat cv Limerick; Table 1.6, winter wheat, general NPK fertilisers (GEN + KP, GENEX), score 0-9, 0 = dead, +14 days
  Phytotoxicity (0-9) (0 = Dead) + 14 Days: 7.5
Winter Wheat cv Limerick; Table 1.6, winter wheat, general fertilisers, score 0-9, 0 = dead
  Phytotoxicity (0-9) (0 = Dead) + 28 Days: 8.0
Winter Wheat cv Limerick; Table 1.6, winter wheat, general fertilisers, +14 days
  Vigour (0-9) (9 = Most Vigour) + 14 days: 8.0
Winter Wheat cv Limerick; Table 1.6, winter wheat, general fertilisers
  Vigour (0-9) + 28 Days: 8.5
PEA cv Ragtime [3]
  Nodules Per Plant (V1): 17.2
  Nodulation Score (0-9) (V1): 5.2
  Phyto-Toxicity Score (0-9) (V1): 7.0
  Vigour Score (0-9) (V1): 6.9
  Nodules Per Plant (VC): 17.1
  Nod Score (0-9) (VC): 5.2
Soybean
  Nodules Per Plant (V1): 28.2
  Nodulation Score (0-9) (V1): 5.3
  Phyto-Toxicity Score (0-9) (V1): 8.0
  Vigour Score (0-9) (V1): 6.2
  Nodules Per Plant (VC): 33.2
  Nod Score (0-9) (VC): 5.8
NAVY BEAN cv Mogex [4]
  Nodules Per Plant (V1): 32.2
  Nodulation Score (0-9) (V1): 5.0
  Phyto-Toxicity Score (0-9) (V1): 7.0
  Vigour Score (0-9) (V1): 7.2
  Nodules Per Plant (VC): 33.2
  Nod Score (0-9) (VC): 5.1

## CC(=O)Nc1ccc(O)cc1 [AC, N-(4-hydroxypheyl)acetamide, reference compound]
PEA cv Ragtime [1]; [5]
  Nodules Per Plant (V1): 16.7
PEA cv Ragtime [1]; [6]
  Nodulation Score (0-9) (V1): 5.0
  Phyto-Toxicity Score (0-9) (V1): 5.2
  Vigour Score (0-9) (V1): 5.1
PEA cv Ragtime [1]; compost of low pH (5.0-5.5)
  Nodules Per Plant (VC): 17.3
  Nod Score (0-9) (VC): 5.2
PEA cv Ragtime [1]; [7]
  Nodules Per Plant (V1): 16.7
PEA cv Ragtime [1]; [8]
  Nodulation Score (0-9) (V1): 5.0
  Phyto-Toxicity Score (0-9) (V1): 5.2
  Rooting Score (0-9) (V1): 4.2
NAVY BEAN cv Mogex [2]
  Nodules Per Plant (V1): 19.3
  Nodulation Score (0-9) (V1): 3.1
  Phyto-Toxicity Score (0-9) (V1): 5.6
  Vigour Score (0-9) (V1): 6.0
  Nodules Per Plant (VC): 22.1
  Nod Score (0-9) (VC): 3.5
Winter Wheat cv Limerick; in vivo
  Phytotoxicity (0-9) (0 = Dead) + 14 Days: 7.0
PEA cv Ragtime [3]
  Nodules Per Plant (V1): 15.4
  Nodulation Score (0-9) (V1): 4.9
  Phyto-Toxicity Score (0-9) (V1): 7.0
  Vigour Score (0-9) (V1): 6.7
  Nodules Per Plant (VC): 16.4
  Nod Score (0-9) (VC): 5.0
Soybean
  Nodules Per Plant (V1): 26.1
  Nodulation Score (0-9) (V1): 5.0
  Phyto-Toxicity Score (0-9) (V1): 8.0
  Vigour Score (0-9) (V1): 6.0
  Nodules Per Plant (VC): 28.1
  Nod Score (0-9) (VC): 5.3
NAVY BEAN cv Mogex [4]
  Nodules Per Plant (V1): 29.5
  Nodulation Score (0-9) (V1): 4.8
  Phyto-Toxicity Score (0-9) (V1): 7.0
  Vigour Score (0-9) (V1): 7.0
  Nodules Per Plant (VC): 32.1
  Nod Score (0-9) (VC): 5.0
